According to patent US6706663B2, “Herbicidal 3-heterocyclic substituted benzisothiazole and benzisoxazole compounds” (Wyeth, priority 2000, dated 2004):

Key:
[1] = system: AMBEL (Ambrosia artemisifolia); assay: Postemergence herbicidal evaluation; assay type: in vivo, L.; details: postemergence
Summary of the method: (§1)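 Seedlings grown for about two weeks were sprayed postemergence and then kept under standard greenhouse care. Injury was rated visually 4–5 weeks after treatment on a 0–9 scale against untreated controls, and ratings from repeat tests were averaged.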

[2] = system: CASOB (Cassia obtusifolia); assay: Postemergence herbicidal evaluation; assay type: in vivo, L.; details: postemergence
Summary of the method: as §1

[3] = system: CHEAL (Chenopodium album); assay: Postemergence herbicidal evaluation; assay type: in vivo, L.; details: postemergence
Summary of the method: as §1

[4] = system: ECHCG (Echinochloa crus-galli); assay: Postemergence herbicidal evaluation; assay type: in vivo, (L.) Beau; details: postemergence
Summary of the method: as §1

ORYSAT (Rice, Tebonnet) [5] = assay: Postemergence herbicidal evaluation; assay type: in vivo, Oryza sativa, (L.) Tebonnet; details: postemergence
Summary of the method: as §1

ZEAMX (Corn, Field) = assay: Postemergence herbicidal evaluation; assay type: in vivo, Zea mays, L.; details: postemergence
Summary of the method: as §1

[6] = system: IPOHE (Ipomoea hederacea); assay: Preemergence herbicidal evaluation; assay type: in vivo, (L.) Jacq.; details: rated 4-5 weeks after treatment
[7] = system: GLXMAW (Soybean, Williams); assay: Preemergence herbicidal evaluation; assay type: in vivo, Glycine max, (L.) Merr. cv Williams; details: rated 4-5 weeks after treatment
ORYSAT (Rice, Tebonnet) [8] = assay: Preemergence herbicidal evaluation; assay type: in vivo, Oryza sativa, (L.) Tebonnet; details: rated 4-5 weeks after treatment
[9] = system: TRZAWR (Wheat, Winter, cv Riband); assay: Preemergence herbicidal evaluation; assay type: in vivo, Triticum aestivum; details: rated 4-5 weeks after treatment
Summary of the method: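 Test compound is applied in aqueous acetone to cups just after seeding. Cups are watered and maintained on greenhouse benches. Each cup is scored 0–9 by eye relative to a control after four to five weeks.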

[10] = system: ECHORC (Echinochloa oryzoides); assay: Flooded paddy, preemergence weed control; assay type: in vivo, Echinochloa oryzoides (Ard.) Fritsch.; details: rated 3-4 weeks after treatment, 0-9 rating scale
Summary of the method: (§2)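 Greenhouse paddy test, preemergence. Seeds planted in the top 0.5 cm of silt loam soil, which remained flooded at 1.5–3 cm depth. Scored 0-9 by visual comparison with control.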

CYPIR (Cyperus iria) = assay: Flooded paddy, preemergence weed control; assay type: in vivo; details: rated 3-4 weeks after treatment, 0-9 rating scale
Summary of the method: as §2

[11] = system: SAGPY (Sagittaria pygmaea); assay: Flooded paddy, preemergence weed control; assay type: in vivo, L.; details: rated 3-4 weeks after treatment, 0-9 rating scale
Summary of the method: as §2

SMILES | AMBEL herbicidal rating ([1]; rate 0.0320 kg/ha) | AMBEL herbicidal rating ([1]; rate 0.0620 kg/ha) | CASOB herbicidal rating ([2]; rate 0.0320 kg/ha) | CASOB herbicidal rating ([2]; rate 0.0620 kg/ha) | CHEAL herbicidal rating ([3]; rate 0.0320 kg/ha) | CHEAL herbicidal rating ([3]; rate 0.0620 kg/ha) | ECHCG herbicidal rating ([4]; rate 0.0320 kg/ha) | ECHCG herbicidal rating ([4]; rate 0.0620 kg/ha) | ORYSAT herbicidal rating (ORYSAT (Rice, Tebonnet) [5]; rate 0.0320 kg/ha) | ORYSAT herbicidal rating (ORYSAT (Rice, Tebonnet) [5]; rate 0.0620 kg/ha) | ZEAMX herbicidal rating (ZEAMX (Corn, Field); rate 0.0320 kg/ha) | ZEAMX herbicidal rating (ZEAMX (Corn, Field); rate 0.0620 kg/ha) | Preemergence herbicidal rating IPOHE ([6]; Rate 0.0620 kg/ha) | Preemergence herbicidal rating IPOHE ([6]; Rate 0.1250 kg/ha) | Preemergence herbicidal rating IPOHE ([6]; Rate 0.2500 kg/ha) | Preemergence herbicidal rating GLXMAW ([7]; Rate 0.0620 kg/ha) | Preemergence herbicidal rating GLXMAW ([7]; Rate 0.1250 kg/ha) | Preemergence herbicidal rating GLXMAW ([7]; Rate 0.2500 kg/ha) | Preemergence herbicidal rating ORYSAT (ORYSAT (Rice, Tebonnet) [8]; Rate 0.0620 kg/ha) | Preemergence herbicidal rating ORYSAT (ORYSAT (Rice, Tebonnet) [8]; Rate 0.1250 kg/ha) | other results
Cn1c(C(F)(F)F)cc(=O)n(-c2ccc3snc(-c4ccco4)c3c2)c1=O [Compound 60, 3-[3-(2-furyl)-1,2-benzisothiazol-5-yl]-1-methyl-6-(trifluoromethyl)uracil] | 9.0 | 9.0 | 1.0 | 4.0 | 6.0 | 5.0 | 2.0 | 2.0 | 3.5 | 4.0 | 5.5 | 6.0 | 0.0 | 0.0 | 9.0 | 1.0 | 3.0 | 4.0 | 1.0 | 4.0 | Preemergence herbicidal rating ORYSAT (ORYSAT (Rice, Tebonnet) [8]; Rate 0.2500 kg/ha): 6.0; Preemergence herbicidal rating TRZAWR ([9]; Rate 0.0620 kg/ha): 1.0; Preemergence herbicidal rating TRZAWR ([9]; Rate 0.1250 kg/ha): 4.0; Preemergence herbicidal rating TRZAWR ([9]; Rate 0.2500 kg/ha): 6.0; herbicidal rating, ECHORC ([10]; rate 0.0080 kg/ha): 1.5; herbicidal rating, ECHORC ([10]; rate 0.0320 kg/ha): 4.0; herbicidal rating, ECHORC ([10]; rate 0.1250 kg/ha): 7.0; herbicidal rating, CYPIR (CYPIR (Cyperus iria); rate 0.0080 kg/ha): 0.0; herbicidal rating, CYPIR (CYPIR (Cyperus iria); rate 0.0320 kg/ha): 6.0; herbicidal rating, CYPIR (CYPIR (Cyperus iria); rate 0.1250 kg/ha): 7.0; herbicidal rating, SAGPY ([11]; rate 0.0080 kg/ha): 0.0; herbicidal rating, SAGPY ([11]; rate 0.0320 kg/ha): 0.0; herbicidal rating, SAGPY ([11]; rate 0.1250 kg/ha): 2.5
Cn1c(C(F)(F)F)cc(=O)n(-c2cc3c(C4OCCCO4)nsc3cc2F)c1=O [Compound 62, 3-(3-m-dioxan-2-yl-6-fluoro-1,2-benzisothiazol-5-yl)-1-methyl-6-(trifluoromethyl)uracil] | 9.0 | 9.0 | 9.0 | 9.0 | 9.0 | 9.0 | 6.0 | 9.0 | 6.0 | 6.0 | 6.0 | 7.0 | 9.0 | 9.0 | 9.0 | 9.0 | 9.0 | 9.0 | 9.0 | 9.0 | Preemergence herbicidal rating ORYSAT (ORYSAT (Rice, Tebonnet) [8]; Rate 0.2500 kg/ha): 9.0; Preemergence herbicidal rating TRZAWR ([9]; Rate 0.0620 kg/ha): 9.0; Preemergence herbicidal rating TRZAWR ([9]; Rate 0.1250 kg/ha): 9.0; Preemergence herbicidal rating TRZAWR ([9]; Rate 0.2500 kg/ha): 9.0; herbicidal rating, ECHORC ([10]; rate 0.0080 kg/ha): 8.5; herbicidal rating, ECHORC ([10]; rate 0.0320 kg/ha): 9.0; herbicidal rating, ECHORC ([10]; rate 0.1250 kg/ha): 9.0; herbicidal rating, CYPIR (CYPIR (Cyperus iria); rate 0.0080 kg/ha): 4.5; herbicidal rating, CYPIR (CYPIR (Cyperus iria); rate 0.0320 kg/ha): 9.0; herbicidal rating, CYPIR (CYPIR (Cyperus iria); rate 0.1250 kg/ha): 9.0; herbicidal rating, SAGPY ([11]; rate 0.0080 kg/ha): 9.0; herbicidal rating, SAGPY ([11]; rate 0.0320 kg/ha): 6.0; herbicidal rating, SAGPY ([11]; rate 0.1250 kg/ha): 9.0
COCC1COC(c2nsc3ccc(-n4c(=O)cc(C(F)(F)F)n(C)c4=O)cc23)O1 (stereo not drawn) [Compound 64, 3-[3-[4-(methoxymethyl)-1,3-dioxolan-2-yl]-1,2-benzisothiazol-5-yl]-1-methyl-6-(trifluoromethyl)uracil] | 9.0 | 9.0 | 4.0 | 5.0 | 9.0 | 9.0 | 3.0 | 5.0 | 5.0 | 5.5 | 5.5 | 5.5 | 7.0 | 9.0 | 9.0 | 9.0 | 9.0 | 9.0 | 8.5 | 9.0 | Preemergence herbicidal rating ORYSAT (ORYSAT (Rice, Tebonnet) [8]; Rate 0.2500 kg/ha): 9.0; Preemergence herbicidal rating TRZAWR ([9]; Rate 0.0620 kg/ha): 9.0; Preemergence herbicidal rating TRZAWR ([9]; Rate 0.1250 kg/ha): 9.0; Preemergence herbicidal rating TRZAWR ([9]; Rate 0.2500 kg/ha): 9.0; herbicidal rating, ECHORC ([10]; rate 0.0080 kg/ha): 1.5; herbicidal rating, ECHORC ([10]; rate 0.0320 kg/ha): 9.0; herbicidal rating, ECHORC ([10]; rate 0.1250 kg/ha): 9.0; herbicidal rating, CYPIR (CYPIR (Cyperus iria); rate 0.0080 kg/ha): 1.5; herbicidal rating, CYPIR (CYPIR (Cyperus iria); rate 0.0320 kg/ha): 6.0; herbicidal rating, CYPIR (CYPIR (Cyperus iria); rate 0.1250 kg/ha): 9.0; herbicidal rating, SAGPY ([11]; rate 0.0080 kg/ha): 0.0; herbicidal rating, SAGPY ([11]; rate 0.0320 kg/ha): 3.0; herbicidal rating, SAGPY ([11]; rate 0.1250 kg/ha): 9.0
CC1=CC(C)(C)OC(c2nsc3ccc(-n4c(=O)cc(C(F)(F)F)n(C)c4=O)cc23)C1 (stereo not drawn) [Compound 65, 3-[3-(3,6-dihydro-4,6,6-trimethyl-2H-pyran-2-yl)-1,2-benzisothiazol-5-yl]-1-methyl-6-(trifluoromethyl)uracil] | 9.0 | 9.0 | 4.0 | 5.0 | 7.0 | 9.0 | 4.0 | 5.0 | 4.0 | 4.5 | 5.0 | 5.5 | 0.0 | 3.0 | 9.0 | 2.0 | 3.0 | 6.0 | 7.0 | 7.0 | Preemergence herbicidal rating ORYSAT (ORYSAT (Rice, Tebonnet) [8]; Rate 0.2500 kg/ha): 9.0; Preemergence herbicidal rating TRZAWR ([9]; Rate 0.0620 kg/ha): 5.0; Preemergence herbicidal rating TRZAWR ([9]; Rate 0.1250 kg/ha): 7.0; Preemergence herbicidal rating TRZAWR ([9]; Rate 0.2500 kg/ha): 9.0; herbicidal rating, ECHORC ([10]; rate 0.0080 kg/ha): 0.0; herbicidal rating, ECHORC ([10]; rate 0.0320 kg/ha): 0.0; herbicidal rating, ECHORC ([10]; rate 0.1250 kg/ha): 7.0; herbicidal rating, CYPIR (CYPIR (Cyperus iria); rate 0.0080 kg/ha): 0.0; herbicidal rating, CYPIR (CYPIR (Cyperus iria); rate 0.0320 kg/ha): 0.0; herbicidal rating, CYPIR (CYPIR (Cyperus iria); rate 0.1250 kg/ha): 9.0; herbicidal rating, SAGPY ([11]; rate 0.0080 kg/ha): 0.0; herbicidal rating, SAGPY ([11]; rate 0.0320 kg/ha): 0.0; herbicidal rating, SAGPY ([11]; rate 0.1250 kg/ha): 0.0
